The source of these data is US20100240656A1, “COMPOUNDS AS HSP90 INHIBITORS” (ORYZON GENOMICS, S.A., priority 2007, published 2010).

The term EC50 denotes the concentration that produces a half-maximal response.

Type in all cases: cell-based
The subject of one assay is HCT-116. Description: Cell growth inhibition by AlamarBlue method, HCT-116. To be noted: Homo sapiens; HCT-116, 72 hours; read-out: Cell growth inhibition values (EC50) obtained with AlamarBlue method. The method, then:
The human colon cancer cell line HCT-116 and the human breast cell lines MCF-7 and SKBr3 were from the American Type Culture Collection (ATCC; CCL-247, HTB-22 and HTB-30, respectively).
The HCT-116 and SKBr3 cell lines were maintained in DMEM GlutaMAX (Invitrogen) supplemented with 10% fetal calf serum and the MCF-7 cell line was maintained in RPMI1640 GlutaMAX (Invitrogen) containing 1 mM sodium pyruvate and 10% fetal calf serum. Cells were grown in a humidified incubator at 37° C. in 5% CO2
Cells were plated in 96-well plates (Costar, 3596) at a density of 6000 cells/well in 50 μL medium 24 h before addition of the compounds. Compounds were then added in 8 concentrations, each in triplicate (dilution series of 1 to 3). To do so, a compound-dilution plate at 200× the screening concentrations was prepared in DMSO 100% (Sigma, 154938). Then, 1.7 μL of the 200× diluted compounds were transferred to a new plate and 170 μL of media were added and mixed with the pipette (plate at 2×). Columns 11 and 12 of this plate (controls) were filled with 1% DMSO in cell media (i.e. 1.7 μL DMSO and 170 μL cell media). Finally, 50 μL of this intermediate plate at 2× were transferred to the plate containing the seeded cells and slowly shaken manually. Cells were grown as described above. AlamarBlue viability assay (Biosource, Invitrogen, DAL1100) was performed 72 hours later following manufacturer's protocol. In brief, AlamarBlue diluted in media was added to cells to have a 5% solution (a 2× solution was prepared in media and 100 μL of this solution were transferred to each well, i.e. final volume of 200 μL). Cells were incubated at 37° C., 3 hours and at room temperature for an additional 30 min. Cells with no compound and, cells with no compound and lysed with triton X-100 (30 μL/well added 10 min before treatment with AlamarBlue) were used as controls (6 replicates of each). Fluorescence was monitored at 530 nm excitation and 590 nm emission wavelengths. Results were quantified using ELx800 Universal Microplate Reader (Bio-Tek Instruments, Inc.). EC50 were calculated as the dose of compound required to inhibit cell growth by 50%.
(The colour change of resazurin is a common sign of viable cells or microbes.)

Another assay has as its system A-549. The experiment in a line: Cell proliferation by MTT method, A-549. To be noted: Homo sapiens. The method, then: (§1) The objective of this study was to determine the influence of the compounds on cell proliferation of K-562, A-549, MCF-7, HeLa, WI-38 by MTT method. The compounds were tested over a three-fold dilution series in triplicate for the determination of EC50 of their influence on cell proliferation.
(§2) The assay is based on the cleavage of the yellow tetrazolium salt MTT into purple formazan by metabolically active cells. The MTT formazan crystals are insoluble in aqueous solution, but may be solubilized by adding the 10% SDS, then incubating the plates overnight in a humidified atmosphere (e.g., 37° C., 5% CO2). The solubilized formazan product can be photometrically quantitated using Tecan reader. An increase in the number of living cells results in an increase of total metabolic activity, which leads to a stronger color formation.
(§3) EC50 values are defined as the compound concentration at which 50% of reaction product is formed.
(§4) Test compounds were dissolved to 10 mM in 100% DMSO.
(§5) In the day of the experiment cells were seeded into all wells of 96-well plates. Serial dilution of compounds was performed in a separate 96-well plate at 20 times final assay concentration in cell culture medium (DMEM with 10% Fetal Bovine Serum). 5 μl of compound was transferred to 96-well plate containing seeded cells in cell culture medium (final total volume=100 μl). Cells were cultured in the presence of the respective test substances in the 96-well plate at 37° C. in a humidified 5% CO2 incubator for a certain period of time (24, 72 or 120 hours). Then 5 μL of thiazolyl blue tetrazolium bromide (MTT) 5 mg/mL was added to the cells and the cells were reincubated 4 hours in a humidified 5% CO2 incubator. Then 10% SDS was added into the each well. The reaction product was quantified by measuring the absorbance at 568 nm using a scanning multiwell spectrophotometer Tecan. The developed color and thereby the absorbance values directly correlate to the number of the living cells.
(§6) The data were analyzed using Microsoft Excel 2000, GraphPad Prism 3.03.
(§7) K 562 (human, chronic myelongenous leukemia), A 549 (human, lung carcinoma), MCF-7 (human, breast adenocarcinoma), Hela (human, cervix, carcinoma, epitheloid), WI-38 (human, embryonic lung)
(Tetrazolium assays rely on reduction of a dye to a coloured formazan, in cell work by metabolically active cells.)

The next assay deals with MCF-7. The experiment in a line: Cell proliferation by MTT method, MCF-7. As to conditions: Homo sapiens. The method, then: as §1, §2, §3, §4, §5, §6, §7
[1] abbreviates: A549, 24 h, A 549, incubation 1 day.
Setting [2] is: A549, 72 h, A 549, incubation 3 days.
Setting [3] is: A549, 120 h, A 549, incubation 5 days.
The mark [4] stands for this setting: MCF7, 24 h, MCF-7, incubation 1 day.
Where [5] appears, read: MCF7, 72 h, MCF-7, incubation 3 days.
Setting [6] is: MCF7, 120 h, MCF-7, incubation 5 days.

With `NCCCCCn1c(Sc2cc3c(cc2I)OCO3)nc(C(N)=O)c1N` [Example 6, 5-amino-1-(5-amino-pentyl)-2-(6-iodo-benzo[1,3]dioxol-5-ylsulfanyl)-1H-imidazole-4-carboxamide], the concentration for a half-maximal effect (EC50) was 23.7 µM in the assay with HCT-116; above 100 µM in the assay with A-549 (setting [1]); 24.1 µM in the assay with A-549 (setting [2]); 14.9 µM with A-549 (setting [3]); above 100 µM with MCF-7 (setting [4]); 17.3 µM in the assay on MCF-7 (setting [5]). In the assay on MCF-7 (setting [6]), the EC50 is 16.7 µM.
As for `CCCCn1c(Sc2cc3c(cc2I)OCO3)nc(C(N)=O)c1N` [Example 10, 5-amino-1-butyl-2-(6-iodo-benzo[1,3]dioxol-5-ylsulfanyl)-1H-imidazole-4-carboxamide], the EC50 is 18 µM in the assay on HCT-116; above 100 µM in the assay on A-549 (setting [1]); 13.3 µM with A-549 (setting [2]); 16.2 µM in the assay with A-549 (setting [3]); above 100 µM in the assay with MCF-7 (setting [4]); 10.1 µM with MCF-7 (setting [5]). A half-maximal response in the assay on MCF-7 (setting [6]) (EC50) required 11.7 µM.
